Laboratory results: patent US10131679B2, “Substituted dihydropyrrolopyrazole compound” (UBE INDUSTRIES, LTD., priority 2014, dated 2018)

Experiments:
[1] = tested on: human large intestine cancer cell line (HCT-116); experiment: Human large intestine cancer (HCT-116) cell growth inhibition test; format: cell-based; settings: 72 h, HCT-116, culture for 3 days, sulforhodamine B absorbance
Summary of the method: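 HCT-116 cells seeded at 1.0×10^3 cells/well in McCoy's 5a with 10% FBS, then exposed to compound (0.1% DMSO final) for 3 days. Growth measured by sulforhodamine B absorbance; IC50 derived from concentration-inhibition data.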

[2] = tested on: IL-2 production in human peripheral blood mononuclear cell (PBMC); experiment: Human PBMC CD3/CD28-induced IL-2 production inhibition test; format: cell-based; settings: 48 h, CD3/CD28 stimulation, incubation for 2 days, ELISA
From the text: Human Peripheral Blood Mononuclear Cell (PBMC) CD3/CD28-Induced IL-2 Production Inhibition Test
PBMC was separated and collected by using Ficoll-Paque (17-1440-02 manufactured by GE Healthcare Japan Corp.) from blood collected from healthy human adult in the presence of heparin. RPMI1640 medium (manufactured by GIBCO/Thermo Fisher Scientific, Inc., REF. 11875) containing 10% FBS (manufactured by GIBCO/Thermo Fisher Scientific, Inc. REF. 10082) and containing a test compound dissolved in DMSO and 2 μg/mL anti-hCD28 (manufactured by R&D Systems, Inc., Cat. No. MAB342) was added at 100 μL/well to T cell Activation Plate Anti-Human CD3 96-well plate (manufactured by Corning Inc., REF. 354725), and subsequently, a PBMC suspension adjusted such that the number of cells was 2×10^6 cells/mL was added at 100 μL/well (final DMSO concentration: 0.1%). A RPMI1640 medium containing 10% FBS and containing 0.1% DMSO and 2 μg/mL anti-hCD28 was similarly added to wells not supplemented with the test compound. After incubation for 2 days in a carbon dioxide incubator, the culture supernatant was collected. The collected culture supernatant was stored at −20° C. until IL-2 content measurement.
In the measurement of IL-2 content in the culture supernatant, a sandwich ELISA kit Quantikine Human IL-2 (manufactured by R&D Systems, Inc., Cat. No. S2050) was used. The IL-2 content of each sample was calculated from the calibration curve of Standard IL-2 included in the kit. When the amount of IL-2 produced by CD3/CD28 stimulation in the case of the addition of only DMSO was defined as 100%, the rate of inhibition of IL-2 production at each concentration of the test compound was calculated. A test compound concentration inhibiting 50% of IL-2 production was calculated as an IC50 value (nM) from the concentration of the added test compound and the rate of inhibition of IL-2 production by the test compound by using EXSUS (version 8.0.0 or version 8.0.1, manufactured by CAC Exicare Corp.).

[3] = tested on: mouse imiquimod-induced psoriasis model; experiment: Ear thickening suppression test using mouse imiquimod-induced psoriasis model; format: in vivo; settings: topical, 120 h, thickness measured on day 5, BALB/c mice, read-out: rate of inhibition of increase in right auricle thickness; for inhibition in vivo at 1 %: application of a 1% solution in methanol for 4 days
Summary of the method: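 Female BALB/c mice received test compound topically or orally, then 5 mg imiquimod cream (5%) on the right auricle 60 minutes later, daily for 4 days. Ear thickness was measured on day 5. Inhibition (%) of thickening was calculated relative to the solvent group, taken as 100%.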

IC50 [1]	Structure (SMILES)	IC50 [2]	inhibition in vivo at 0.01 % ([3]; application of a 0.01% methanol solution for 4 days)	inhibition in vivo at 1 % [3]
≤ 500 nM	CC(C)(CO)C(NC(=O)N1Cc2c(NC(=O)C3([Si](C)(C)C)CCC3)n[nH]c2C1(C)C)c1ccccc1 (racemic) [IV-354, N-(3-Hydroxy-2,2-dimethyl-1-phenylpropyl)-6,6-dimethyl-3-[1-(trimethylsilyl)cyclobutanecarboxamido]-4,6-dihydropyrrolo[3,4-c]pyrazole-5(1H)-carboxamide]	≤ 50 nM	≥ 50%	
≤ 500 nM	CC1(C)c2[nH]nc(NC(=O)C(C)(C)[Si](C)(C)C)c2CN1C(=O)N[C@H](CO)c1ccccc1 [II-114, (S)—N-(2-Hydroxy-1-phenylethyl)-6,6-dimethyl-3-[2-methyl-2-(trimethylsilyl)propanamido]-4,6-dihydropyrrolo[3,4-c]pyrazole-5(1H)-carboxamide]	≤ 50 nM		
≤ 500 nM	CC1(C)c2[nH]nc(NC(=O)C3([Si](C)(C)C)CC3)c2CN1C(=O)N[C@H](CO)c1ccccc1 [III-114, (S)—N-(2-Hydroxy-1-phenylethyl)-6,6-dimethyl-3-[1-(trimethylsilyl)cyclopropanecarboxamido]-4,6-dihydropyrrolo[3,4-c]pyrazole-5(1H)-carboxamide]	≤ 50 nM		
≤ 500 nM	CC1(C)c2[nH]nc(NC(=O)C3([Si](C)(C)C)CCC3)c2CN1C(=O)N[C@H](CO)c1ccccc1 [IV-114, (S)—N-(2-Hydroxy-1-phenylethyl)-6,6-dimethyl-3-[1-(trimethylsilyl)cyclobutanecarboxamido]-4,6-dihydropyrrolo[3,4-c]pyrazole-5(1H)-carboxamide]	≤ 50 nM		≥ 50%
≤ 500 nM	COC[C@@H](NC(=O)N1Cc2c(NC(=O)C3([Si](C)(C)C)CCC3)n[nH]c2C1(C)C)c1ccccc1 [IV-123, (S)—N-(2-Methoxy-1-phenylethyl)-6,6-dimethyl-3-[1-(trimethylsilyl)cyclobutanecarboxamido]-4,6-dihydropyrrolo[3,4-c]pyrazole-5(1H)-carboxamide]	≤ 50 nM		≥ 50%
≤ 500 nM	CCOC[C@@H](NC(=O)N1Cc2c(NC(=O)C3([Si](C)(C)C)CCC3)n[nH]c2C1(C)C)c1ccccc1 [IV-139, (S)—N-(2-Ethoxy-1-phenylethyl)-6,6-dimethyl-3-[1-(trimethylsilyl)cyclobutanecarboxamido]-4,6-dihydropyrrolo[3,4-c]pyrazole-5(1H)-carboxamide]	≤ 50 nM		
≤ 500 nM	CC(C)(O)[C@@H](NC(=O)N1Cc2c(NC(=O)C3([Si](C)(C)C)CCC3)n[nH]c2C1(C)C)c1ccccc1 [IV-171, (S)—N-(2-Hydroxy-2-methyl-1-phenylpropyl)-6,6-dimethyl-3-[1-(trimethylsilyl)cyclobutanecarboxamido]-4,6-dihydropyrrolo[3,4-c]pyrazole-5(1H)-carboxamide]	≤ 50 nM		
≤ 500 nM	CC1(C)c2[nH]nc(NC(=O)C3([Si](C)(C)C)CCC3)c2CN1C(=O)N[C@H](CCO)c1ccccc1 [IV-227, (R)—N-(3-Hydroxy-1-phenylpropyl)-6,6-dimethyl-3-[1-(trimethylsilyl)cyclobutanecarboxamido]-4,6-dihydropyrrolo[3,4-c]pyrazole-5(1H)-carboxamide]	≤ 50 nM		≥ 50%
≤ 500 nM	CC1(C)c2[nH]nc(NC(=O)C3([Si](C)(C)C)CCC3)c2CN1C(=O)N[C@H](CCCO)c1ccccc1 [IV-283, (R)—N-(4-Hydroxy-1-phenylbutyl)-6,6-dimethyl-3-[1-(trimethylsilyl)cyclobutanecarboxamido]-4,6-dihydropyrrolo[3,4-c]pyrazole-5(1H)-carboxamide]	≤ 50 nM		
≤ 500 nM	CC1(C)c2[nH]nc(NC(=O)C3([Si](C)(C)C)CCC3)c2CN1C(=O)NCC(O)c1ccccc1 (stereo not drawn) [IV-450, N-(2-Hydroxy-2-phenylethyl)-6,6-dimethyl-3-[1-(trimethylsilyl)cyclobutanecarboxamido]-4,6-dihydropyrrolo[3,4-c]pyrazole-5(1H)-carboxamide]	≤ 50 nM		
